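Where inhibition never reached the appropriate level, the endpoint shown equals the highest concentration tested. Otherwise, values were interpolated linearly from a five-concentration, 48-hour dose response in 96-well plates. Abbreviation: GI50, concentration required for 50% inhibition of growth.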 Active and inactive are the calls of the source. Cut-off read from the data, not from the text of the source: active = GI50 up to about 1.1 µM and inactive = higher.
Columns and labels:
Assay in all cases: DTP human tumour cell line panel, 48 h
U-251 = test system: U-251
A498 = test system: A498
SF-268 = test system: SF-268
MOLT-4 = test system: MOLT-4
HCT-116 = test system: HCT-116
DU-145 = test system: DU-145
NCI-H460 = test system: NCI-H460
SN12C = test system: SN12C
HCC 2998 = test system: HCC 2998
NCI-H226 = test system: NCI-H226
UO-31 = test system: UO-31
Malme-3M = test system: Malme-3M
OVCAR-4 = test system: OVCAR-4
EKVX = test system: EKVX
MCF7 = test system: MCF7
NCI-H23 = test system: NCI-H23
CAKI-1 = test system: CAKI-1
HCT-15 = test system: HCT-15
RXF 393 = test system: RXF 393

Compound | GI50 (U-251) | GI50 (A498) | GI50 (SF-268) | GI50 (MOLT-4) | GI50 (HCT-116) | GI50 (DU-145) | GI50 (NCI-H460) | GI50 (SN12C) | GI50 (HCC 2998) | GI50 (NCI-H226) | GI50 (UO-31) | GI50 (Malme-3M) | GI50 (OVCAR-4) | GI50 (EKVX) | GI50 (MCF7) | GI50 (NCI-H23) | GI50 (CAKI-1) | GI50 (HCT-15) [µM] | GI50 (RXF 393)
Cc1cc(S(=O)(=O)Nc2n[nH]c(Nc3ccccc3)n2)c(S)cc1Cl | > 10 µM (inactive) | > 10 µM (inactive) | > 10 µM (inactive) | > 10 µM (inactive) | > 10 µM (inactive) | > 10 µM (inactive) | > 10 µM (inactive) | > 10 µM (inactive) | > 10 µM (inactive) | > 10 µM (inactive) | > 10 µM (inactive) | > 10 µM (inactive) | > 10 µM (inactive) | > 10 µM (inactive) | > 10 µM (inactive) | > 10 µM (inactive) | > 10 µM (inactive) | > 10 | > 10 µM (inactive)
CCCCOC(=O)C1C(c2ccc(Cl)cc2)NC(c2ccc(Cl)cc2)C(C(=O)OCCCC)S1(=O)=O (centres undefined) | > 100 µM (inactive) | > 100 µM (inactive) | > 100 µM (inactive) | > 100 µM (inactive) | – | – | > 100 µM (inactive) | > 100 µM (inactive) | > 100 µM (inactive) | > 100 µM (inactive) | > 100 µM (inactive) | > 100 µM (inactive) | > 100 µM (inactive) | > 100 µM (inactive) | – | > 100 µM (inactive) | > 100 µM (inactive) | > 100 | > 100 µM (inactive)
Nn1c(S)nnc1N/N=C1/C(=O)Nc2ccccc21 | 58.3 µM (inactive) | 92.3 µM (inactive) | 56 µM (inactive) | 30.7 µM (inactive) | 53.1 µM (inactive) | – | 54.7 µM (inactive) | 50.6 µM (inactive) | > 100 µM (inactive) | 42.1 µM (inactive) | 47 µM (inactive) | > 100 µM (inactive) | 42.1 µM (inactive) | > 100 µM (inactive) | – | 16.9 µM (inactive) | 52.6 µM (inactive) | 57.7 | 27.7 µM (inactive)
C=CC/N=C1\NC(=O)C(CC(=O)Nc2ccc(C)cc2)S1 (centres undefined) | > 100 µM (inactive) | > 100 µM (inactive) | > 100 µM (inactive) | > 100 µM (inactive) | – | – | > 100 µM (inactive) | > 100 µM (inactive) | > 100 µM (inactive) | > 100 µM (inactive) | > 100 µM (inactive) | > 100 µM (inactive) | > 100 µM (inactive) | > 100 µM (inactive) | – | > 100 µM (inactive) | > 100 µM (inactive) | > 100 | > 100 µM (inactive)
CCc1ccc(Nc2ccc([N+](=O)[O-])cc2[N+](=O)[O-])cc1 | 77.1 µM (inactive) | 23.7 µM (inactive) | – | 19.1 µM (inactive) | 36.7 µM (inactive) | – | 69.2 µM (inactive) | – | > 100 µM (inactive) | 34.2 µM (inactive) | 26.2 µM (inactive) | > 100 µM (inactive) | 34.5 µM (inactive) | 75.9 µM (inactive) | – | 71.1 µM (inactive) | 39.1 µM (inactive) | 96.4 | 71.4 µM (inactive)
CC(=O)O[C@H]1CCC2[C@@H]3CCC4c5nonc5CC[C@]4(C)C3CC[C@@]21C (some centres undefined) | > 10 µM (inactive) | > 10 µM (inactive) | > 10 µM (inactive) | > 10 µM (inactive) | > 10 µM (inactive) | – | > 10 µM (inactive) | > 10 µM (inactive) | > 10 µM (inactive) | > 10 µM (inactive) | > 10 µM (inactive) | > 10 µM (inactive) | > 10 µM (inactive) | > 10 µM (inactive) | – | > 10 µM (inactive) | > 10 µM (inactive) | > 10 | > 10 µM (inactive)
COC1C(OC(=O)c2ccc(C)[nH]2)C(O)C(Oc2ccc3c(O)c(NC(=O)c4c[nH]c(C(=O)Nc5c(O)c6ccc(OC7OC(C)(C)C(OC)C(OC(=O)c8ccc(C)[nH]8)C7O)c(C)c6oc5=O)c4C)c(=O)oc3c2C)OC1(C)C (centres undefined) | 0.597 µM (active) | 1.76 µM (inactive) | 0.67 µM (active) | 0.857 µM (active) | – | – | 1.88 µM (inactive) | 1.54 µM (inactive) | 2.59 µM (inactive) | 1.96 µM (inactive) | 1.45 µM (inactive) | 2.09 µM (inactive) | 2.05 µM (inactive) | 3.82 µM (inactive) | – | 1.24 µM (inactive) | 2.75 µM (inactive) | 1.88 | 0.794 µM (active)
O=c1c2nc[nH]c2n(-c2ccccc2)c(=S)n1-c1ccccc1 | > 100 µM (inactive) | > 100 µM (inactive) | > 100 µM (inactive) | > 100 µM (inactive) | > 100 µM (inactive) | > 100 µM (inactive) | > 100 µM (inactive) | > 100 µM (inactive) | > 100 µM (inactive) | > 100 µM (inactive) | > 100 µM (inactive) | – | > 100 µM (inactive) | > 100 µM (inactive) | > 100 µM (inactive) | > 100 µM (inactive) | > 100 µM (inactive) | > 100 | > 100 µM (inactive)
